# Measured values reported in PubChem BioAssay (NCI).
#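 These data come from cells grown in 96-well plates and exposed to compound for 48 hours at five concentrations. TGI: concentration producing complete growth inhibition.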
# Tests used:
# Test in all cases: NCI anticancer screen, dose series, 48 h
# NCI-H460 lung = tested on: NCI-H460 lung
# NCI/ADR-RES ovarian = tested on: NCI/ADR-RES ovarian
# SW-620 colon = tested on: SW-620 colon
# SK-OV-3 ovarian = tested on: SK-OV-3 ovarian
# PC-3 prostate = tested on: PC-3 prostate
# SF-539 CNS = tested on: SF-539 CNS
# HOP-92 NSCLC = tested on: HOP-92 NSCLC
# OVCAR-5 ovarian = tested on: OVCAR-5 ovarian
# RPMI-8226 leukemia = tested on: RPMI-8226 leukemia
# RXF 393 renal = tested on: RXF 393 renal
# UACC-257 melanoma = tested on: UACC-257 melanoma
# SK-MEL-5 melanoma = tested on: SK-MEL-5 melanoma
# U251 CNS = tested on: U251 CNS
# SN12C renal = tested on: SN12C renal
# MCF7 breast = tested on: MCF7 breast
# SNB-75 CNS = tested on: SNB-75 CNS
# UACC-62 melanoma = tested on: UACC-62 melanoma
# A498 renal = tested on: A498 renal
# HT29 colon = tested on: HT29 colon
# OVCAR-3 ovarian = tested on: OVCAR-3 ovarian
# HCT-15 colon = tested on: HCT-15 colon
# MALME-3M melanoma = tested on: MALME-3M melanoma
# OVCAR-8 ovarian = tested on: OVCAR-8 ovarian
# ACHN renal = tested on: ACHN renal
# A549 NSCLC = tested on: A549 NSCLC
# KM12 colon = tested on: KM12 colon
# UO-31 renal = tested on: UO-31 renal
# K-562 leukemia = tested on: K-562 leukemia
# SK-MEL-28 melanoma = tested on: SK-MEL-28 melanoma
# HS 578T breast = tested on: HS 578T breast
# SF-295 CNS = tested on: SF-295 CNS
# TK-10 renal = tested on: TK-10 renal
# SK-MEL-2 melanoma = tested on: SK-MEL-2 melanoma
# BT-549 breast = tested on: BT-549 breast
# SF-268 CNS = tested on: SF-268 CNS
# T-47D breast = tested on: T-47D breast
# COLO 205 colon = tested on: COLO 205 colon
# NCI-H226 lung = tested on: NCI-H226 lung
# MDA-MB-231 breast = tested on: MDA-MB-231 breast
# SNB-19 CNS = tested on: SNB-19 CNS
# CAKI-1 renal = tested on: CAKI-1 renal
# NCI-H522 lung = tested on: NCI-H522 lung
# HCC-2998 colon = tested on: HCC-2998 colon
# LOX IMVI melanoma = tested on: LOX IMVI melanoma
# DU-145 prostate = tested on: DU-145 prostate
# HOP-62 NSCLC = tested on: HOP-62 NSCLC
# HCT-116 colon = tested on: HCT-116 colon
# CCRF-CEM leukemia = tested on: CCRF-CEM leukemia
# NCI-H23 lung = tested on: NCI-H23 lung
# MDA-N = tested on: MDA-N
# EKVX NSCLC = tested on: EKVX NSCLC
# M14 melanoma = tested on: M14 melanoma
# HL-60(TB) leukemia = tested on: HL-60(TB) leukemia
# MOLT-4 leukemia = tested on: MOLT-4 leukemia
# 786-0 renal = tested on: 786-0 renal
# OVCAR-4 ovarian = tested on: OVCAR-4 ovarian
# MDA-MB-435 = tested on: MDA-MB-435
# IGROV1 ovarian = tested on: IGROV1 ovarian
compound,measurement,setting,value
CC(=O)NC1C(OCc2ccccc2)OC(CO)C(O)C1OCC(=O)N1CCCC1C(=O)N[C@@H](CCC(=O)NCCNCCNc1c2ccccc2nc2cccc([N+](=O)[O-])c12)C(N)=O (stereo partly specified),TGI,NCI-H460 lung,6.63 µM
same,TGI,NCI/ADR-RES ovarian,33.5 µM
same,TGI,SW-620 colon,24.5 µM
same,TGI,SK-OV-3 ovarian,83.3 µM
same,TGI,PC-3 prostate,13.7 µM
same,TGI,SF-539 CNS,10.4 µM
same,TGI,HOP-92 NSCLC,5.61 µM
same,TGI,OVCAR-5 ovarian,23.1 µM
same,TGI,RPMI-8226 leukemia,3.29 µM
same,TGI,RXF 393 renal,6.58 µM
same,TGI,UACC-257 melanoma,15.6 µM
same,TGI,SK-MEL-5 melanoma,3.38 µM
same,TGI,U251 CNS,12.4 µM
same,TGI,SN12C renal,10.6 µM
same,TGI,MCF7 breast,19.9 µM
same,TGI,SNB-75 CNS,24.8 µM
same,TGI,UACC-62 melanoma,15.5 µM
same,TGI,A498 renal,9.21 µM
same,TGI,HT29 colon,9.02 µM
same,TGI,OVCAR-3 ovarian,20.4 µM
same,TGI,HCT-15 colon,11.8 µM
same,TGI,MALME-3M melanoma,7.35 µM
same,TGI,OVCAR-8 ovarian,15.4 µM
same,TGI,ACHN renal,15.3 µM
same,TGI,A549 NSCLC,9.83 µM
same,TGI,KM12 colon,15.6 µM
same,TGI,UO-31 renal,14.8 µM
same,TGI,K-562 leukemia,> 100 µM
same,TGI,SK-MEL-28 melanoma,18.2 µM
same,TGI,HS 578T breast,23.2 µM
same,TGI,SF-295 CNS,28.6 µM
same,TGI,TK-10 renal,21.4 µM
same,TGI,SK-MEL-2 melanoma,10.8 µM
same,TGI,BT-549 breast,18.9 µM
same,TGI,SF-268 CNS,25.1 µM
same,TGI,T-47D breast,93.6 µM
same,TGI,COLO 205 colon,4.97 µM
same,TGI,NCI-H226 lung,33.8 µM
same,TGI,MDA-MB-231 breast,9.03 µM
same,TGI,SNB-19 CNS,26.1 µM
same,TGI,CAKI-1 renal,16.5 µM
same,TGI,NCI-H522 lung,3.96 µM
same,TGI,HCC-2998 colon,8.46 µM
same,TGI,LOX IMVI melanoma,20.1 µM
same,TGI,DU-145 prostate,> 21.2 µM
same,TGI,HOP-62 NSCLC,11.7 µM
same,TGI,HCT-116 colon,5.26 µM
same,TGI,CCRF-CEM leukemia,6.22 µM
same,TGI,NCI-H23 lung,10.6 µM
same,TGI,MDA-N,6.17 µM
same,TGI,EKVX NSCLC,26.6 µM
same,TGI,M14 melanoma,6.4 µM
same,TGI,HL-60(TB) leukemia,> 39.5 µM
same,TGI,MOLT-4 leukemia,> 100 µM
same,TGI,786-0 renal,9.17 µM
same,TGI,OVCAR-4 ovarian,14.1 µM
same,TGI,MDA-MB-435,5.63 µM
same,TGI,IGROV1 ovarian,14.5 µM
C[C@]12CC[C@@H]3c4cc(Br)c(O)c(Br)c4CC[C@H]3[C@@H]1CCC2=O,TGI,NCI-H460 lung,48.9 µM
same,TGI,NCI/ADR-RES ovarian,36.9 µM
same,TGI,SW-620 colon,> 100 µM
same,TGI,SK-OV-3 ovarian,95.7 µM
same,TGI,PC-3 prostate,> 100 µM
same,TGI,SF-539 CNS,39.3 µM
same,TGI,HOP-92 NSCLC,> 100 µM
same,TGI,OVCAR-5 ovarian,65.2 µM
same,TGI,RXF 393 renal,36.7 µM
same,TGI,UACC-257 melanoma,56.1 µM
same,TGI,U251 CNS,36.5 µM
same,TGI,SN12C renal,65.1 µM
same,TGI,MCF7 breast,43.9 µM
same,TGI,SNB-75 CNS,33.3 µM
same,TGI,UACC-62 melanoma,> 100 µM
same,TGI,A498 renal,> 100 µM
same,TGI,HT29 colon,> 100 µM
same,TGI,OVCAR-3 ovarian,31.4 µM
same,TGI,HCT-15 colon,26.1 µM
same,TGI,MALME-3M melanoma,> 100 µM
same,TGI,OVCAR-8 ovarian,39.5 µM
same,TGI,ACHN renal,26.9 µM
same,TGI,A549 NSCLC,36.2 µM
same,TGI,KM12 colon,> 100 µM
same,TGI,UO-31 renal,24.2 µM
same,TGI,K-562 leukemia,> 100 µM
same,TGI,SK-MEL-28 melanoma,> 100 µM
same,TGI,HS 578T breast,52.2 µM
same,TGI,SF-295 CNS,38.1 µM
same,TGI,TK-10 renal,34.5 µM
same,TGI,SK-MEL-2 melanoma,38.3 µM
same,TGI,BT-549 breast,57.7 µM
same,TGI,SF-268 CNS,54.3 µM
same,TGI,T-47D breast,> 100 µM
same,TGI,COLO 205 colon,> 100 µM
same,TGI,NCI-H226 lung,26 µM
same,TGI,MDA-MB-231 breast,> 100 µM
same,TGI,CAKI-1 renal,38.9 µM
same,TGI,HCC-2998 colon,26.9 µM
same,TGI,LOX IMVI melanoma,71.9 µM
same,TGI,DU-145 prostate,> 100 µM
same,TGI,HCT-116 colon,> 100 µM
same,TGI,CCRF-CEM leukemia,> 100 µM
same,TGI,NCI-H23 lung,26.7 µM
same,TGI,MDA-N,> 100 µM
same,TGI,EKVX NSCLC,74.8 µM
same,TGI,M14 melanoma,> 100 µM
same,TGI,HL-60(TB) leukemia,> 100 µM
same,TGI,MOLT-4 leukemia,80.6 µM
same,TGI,786-0 renal,46.4 µM
same,TGI,OVCAR-4 ovarian,41.9 µM
same,TGI,MDA-MB-435,> 100 µM
same,TGI,IGROV1 ovarian,> 100 µM
